Values of other authors, collected in paper PMC10930872, “Preparation, Structural Identification, and Screening of Egg-Derived Peptides with Facilitating Alcohol Metabolism Activity” (Foods, 2024).
Each block holds one compound with its values, some of them ahead of it.

Legend:
hepatic ADH = settings: ref [42],[43]
Text: This has to do with the fact that eggs contain all EAAs. […] Ala is involved in hepatic gluconeogenesis, which oxidizes NADH + H^+ to NAD^+, thereby maintaining cytoplasmic NAD^+ concentrations and promoting alcohol metabolism. […] It is reported that HAA (Tyr, Trp, Gl ...

[1] = molecular target: T1, alcohol dehydrogenase (ADH) (Saccharomyces cerevisiae, UniProt P00330); settings: pentapeptide screened by Zan et al., 2023; ref [59]; read-out: EC50 of ADH activation
T1 sequence (P00330 1-348): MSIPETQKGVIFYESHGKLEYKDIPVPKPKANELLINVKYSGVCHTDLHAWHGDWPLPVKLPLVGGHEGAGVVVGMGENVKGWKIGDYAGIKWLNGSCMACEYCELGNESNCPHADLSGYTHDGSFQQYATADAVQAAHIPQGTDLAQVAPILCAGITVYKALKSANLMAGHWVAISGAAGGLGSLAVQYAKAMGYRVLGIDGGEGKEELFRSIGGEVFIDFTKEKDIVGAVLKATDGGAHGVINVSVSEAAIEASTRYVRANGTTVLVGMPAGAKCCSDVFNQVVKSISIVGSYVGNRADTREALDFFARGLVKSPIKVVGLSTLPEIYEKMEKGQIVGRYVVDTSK
Text: GSH, a tripeptide composed of Glu, Cys, and Gly, is widely found in normal human cells, with the highest concentration in the liver. It plays an important role in scavenging free radicals, inhibiting inflammatory factors, relieving hangovers, and protecting the liver.

ethanol dehydrogenase = test system: ethanol dehydrogenase; set-up: method as in doi:10.1016/j.lwt.2022.113376; settings: ref [36]

Compound: CC(C)C[C@H](N)C(=O)O [Leu, L-leucine]
- Hepatic ADH activity (hepatic ADH): significantly increase hepatic ADH activity

- EC50 [1]: 1600 nM
Compound: ILPHF [pentapeptide screened by Zan et al., 2023]

Compound: Lys-Pro-Cys [KPC, chicken-derived tripeptide]
- Stability of ethanol dehydrogenase (ethanol dehydrogenase): enhanced the stability of ethanol dehydrogenase
